# Reference: patent publication US8859572B2, “Sulfone substituted 2,3-dihydroimidazo [1,2-C] quinazoline derivatives useful for treating hyper-proliferative disorders and diseases with angiogenesis” (Bayer Intellectual Property GmbH, priority 2008, dated 2014)
# pIC50: −log10 of the molar value.
# Target: T1, PI3Kβ (recombinant truncated form (ΔN1-108) of the human p110β subunit of PI3K) (Homo sapiens, UniProt P42338)
# T1 construct: His6 (N); made in house; host or cells: Spodoptera frugiperda Sf9 insect cells
# Experiment: Solid-phase lipid kinase assay of PI3Kβ
# Type: biochemical
# Settings: 7.5 ng protein/well, final 10 μM ATP, 2 h at rt
# Protocol: To assess inhibition of PI3Kα by compounds, the Maxisorp™ plates were coated with 50 μL/well of a solution containing 50 μg/ml PtdIns and 50 μg/ml PtdSer dissolved in chloroform:ethanol (3:7). The plates were subsequently air-dried by incubation for at least 2 h in a fume hood. The reaction was set up by mixing 25 μL/well of assay buffer 2×(100 mM MOPSO/NaOH, 0.2 M NaCl, pH 7.0, 8 mM MgCl2, 2 mg/mL BSA (fatty acid-free)), and 7.5 ng/well PI3Kα in the lipid pre-coated plate. Test compounds at different concentrations (0.0, 0.003, 0.01 0.03, 0.1, 0.3, 1.0, 3.0 and 10 μM) were added in 2% DMSO. The reaction was initiated by adding 20 μL/well of ATP mix (final 10 μM ATP; 0.05 μCi/well [γ^33P]ATP). After incubation at rt for 2 h, the reaction was terminated by adding 50 μl/well stop solution (50 mM EDTA, pH 8.0). The plate was then washed twice with Tris-buffered saline (TBS, pH 7.4). MicroScint PS™ (PACKARD) scintillation mix was added at 100 μL/well, and radioactivity was counted using a TopCount™ (PACKARD) scintillation counter.
# The inhibition percent at each concentration of compound was calculated, and IC50 values were determined from the inhibition of curve.
# A recombinant truncated form (ΔN1-108) of the human p110β subunit of PI3K with an N-terminal His6-Tag was expressed in S. frugiperda 9 insect cells. Recombinant human PI3Kγ (full length human PI3K p110γ fused with a His6-tag at the C-terminus expressed in S. frugiperda 9 insect cells) was obtained from ALEXIS BIOCHEMICALS (#201-055-0010; San Diego, Calif.).
# Kinase assays using recombinant truncated p110β or the full length p110γ were performed in a similar manner as described in the determination of IC50 values of compounds in the kinase assay of PI3Kα except that these isoforms were assayed using 7.5 ng and 25.0 ng of protein/well, respectively.
# T1 sequence (P42338 109-1070): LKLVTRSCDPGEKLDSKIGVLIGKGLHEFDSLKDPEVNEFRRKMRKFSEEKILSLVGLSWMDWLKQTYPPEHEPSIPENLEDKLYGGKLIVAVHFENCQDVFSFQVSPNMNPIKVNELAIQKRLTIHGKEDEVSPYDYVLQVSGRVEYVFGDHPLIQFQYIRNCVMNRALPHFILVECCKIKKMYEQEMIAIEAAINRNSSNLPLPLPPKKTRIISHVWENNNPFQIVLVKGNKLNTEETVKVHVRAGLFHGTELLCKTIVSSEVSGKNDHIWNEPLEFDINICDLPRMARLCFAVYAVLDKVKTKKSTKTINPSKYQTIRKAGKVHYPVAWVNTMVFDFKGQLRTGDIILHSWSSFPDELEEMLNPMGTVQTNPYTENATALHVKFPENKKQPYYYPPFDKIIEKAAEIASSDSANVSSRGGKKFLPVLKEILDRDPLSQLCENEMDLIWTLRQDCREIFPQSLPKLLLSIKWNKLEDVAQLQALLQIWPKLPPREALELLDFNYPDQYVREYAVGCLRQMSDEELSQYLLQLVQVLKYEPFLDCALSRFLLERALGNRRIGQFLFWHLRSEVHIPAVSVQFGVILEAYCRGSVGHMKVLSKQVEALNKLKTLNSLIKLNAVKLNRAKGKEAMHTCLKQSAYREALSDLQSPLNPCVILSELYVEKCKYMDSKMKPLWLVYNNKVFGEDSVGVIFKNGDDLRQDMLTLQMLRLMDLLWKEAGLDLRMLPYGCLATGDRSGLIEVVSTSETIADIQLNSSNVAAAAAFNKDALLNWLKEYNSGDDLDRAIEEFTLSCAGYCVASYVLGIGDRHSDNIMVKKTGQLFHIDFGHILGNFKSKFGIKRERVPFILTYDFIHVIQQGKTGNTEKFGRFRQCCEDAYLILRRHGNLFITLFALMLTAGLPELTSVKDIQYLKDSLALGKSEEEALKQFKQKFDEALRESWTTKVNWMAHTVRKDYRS
row,Structure (SMILES),pIC50
1,"COc1c(OCCCS(=O)(=O)N2CCN(C)CC2)ccc2c1N=C(NC(=O)c1cccnc1)N1CCN=C21 [Example 1, N-(7-methoxy-8-{3-[(4-methylpiperazin-1-yl)sulfonyl]propoxy}-2,3-dihydroimidazo[1,2-c]quinazolin-5-yl)nicotinamide]",> 7.00
2,"COc1c(OCc2ccc(S(C)(=O)=O)cc2)ccc2c1N=C(NC(=O)c1cccnc1)N1CCN=C21 [Example 2, N-(7-methoxy-8-{[4-(methylsulfonyl)benzyl]oxy}-2,3-dihydroimidazo[1,2-c]quinazolin-5-yl)nicotinamide]",5.52 to 7.00
3,"COc1c(OCCCS(=O)(=O)N2CCOCC2)ccc2c1N=C(NC(=O)c1cccnc1)N1CCN=C21 [Example 3, N-{7-methoxy-8-[3-(morpholin-4-ylsulfonyl)propoxy]-2,3-dihydroimidazo[1,2-c]quinazolin-5-yl}nicotinamide]",> 7.00
4,"COc1c(OCCCN2CCS(=O)(=O)CC2)ccc2c1N=C(NC(=O)c1cccnc1)N1CCN=C21 [Example 4, N-{8-[3-(1,1-dioxidothiomorpholin-4-yl)propoxy]-7-methoxy-2,3-dihydroimidazo[1,2-c]quinazolin-5-yl}nicotinamide]",> 7.00
5,"COc1c(OCCCS(=O)(=O)N(C)C)ccc2c1N=C(NC(=O)c1cccnc1)N1CCN=C21 [Example 5, N-(8-{3-[(dimethylamino)sulfonyl]propoxy}-7-methoxy-2,3-dihydroimidazo[1,2-c]quinazolin-5-yl)nicotinamide]",> 7.00
6,"CCN(CC)S(=O)(=O)CCCOc1ccc2c(c1OC)N=C(NC(=O)c1cccnc1)N1CCN=C21 [Example 6, N-(8-{3-[(diethylamino)sulfonyl]propoxy}-7-methoxy-2,3-dihydroimidazo[1,2-c]quinazolin-5-yl)nicotinamide]",> 7.00
7,"O=C(NC1=Nc2c(OCCCS(=O)(=O)N3CCOCC3)cccc2C2=NCCN12)c1cccnc1 [Example 7, N-{7-[3-(morpholin-4-ylsulfonyl)propoxy]-2,3-dihydroimidazo[1,2-c]quinazolin-5-yl}nicotinamide]",5.52 to 7.00
8,"CN1CCN(S(=O)(=O)CCCOc2cccc3c2N=C(NC(=O)c2cccnc2)N2CCN=C32)CC1 [Example 8, N-(7-{3-[(4-methylpiperazin-1-yl)sulfonyl]propoxy}-2,3-dihydroimidazo[1,2-c]quinazolin-5-yl)nicotinamide]",5.52 to 7.00
9,"O=C(NC1=Nc2c(OCCCN3CCS(=O)(=O)CC3)cccc2C2=NCCN12)c1cccnc1 [Example 9, N-{7-[3-(1,1-dioxidothiomorpholin-4-yl)propoxy]-2,3 dihydroimidazo[1,2-c]quinazolin-5-yl}nicotinamide]",5.52 to 7.00
10,"CS(=O)(=O)c1ccc(COc2cccc3c2N=C(NC(=O)c2cccnc2)N2CCN=C32)cc1 [Example 10, N-(7-{[4-(methylsulfonyl)benzyl]oxy}-2,3-dihydroimidazo[1,2-c]quinazolin-5-yl)nicotinamide]",> 7.00
11,"CN(C)S(=O)(=O)CCCOc1cccc2c1N=C(NC(=O)c1cccnc1)N1CCN=C21 [Example 11, N-(7-{3-[(dimethylamino)sulfonyl]propoxy}-2,3-dihydroimidazo[1,2-c]quinazolin-5-yl)nicotinamide]",> 7.00
12,O=C(NC1=Nc2c(ccc(OCCCN3CCOCC3)c2OCCCS(=O)(=O)N2CCOCC2)C2=NCCN12)c1cccnc1 [Example 12],> 7.00
13,"CN1CCN(S(=O)(=O)CCCOc2c(OCCCN3CCOCC3)ccc3c2N=C(NC(=O)c2cccnc2)N2CCN=C32)CC1 [Example 13, N-[7-{3-[(4-methylpiperazin-1-yl)sulfonyl]propoxy}-8-(3-morpholin-4-ylpropoxy)-2,3-dihydroimidazo[1,2-c]quinazolin-5-yl]nicotinamide]",> 7.00
14,"CCN(CC)S(=O)(=O)CCCOc1c(OCCCN2CCOCC2)ccc2c1N=C(NC(=O)c1cccnc1)N1CCN=C21 [Example 14, N-[7-{3-[(Diethylamino)sulfonyl]propoxy}-8-(3-morpholin-4-ylpropoxy)-2,3-dihydroimidazo[1,2-c]quinazolin-5-yl]nicotinamide]",> 7.00
15,"CN(C)S(=O)(=O)CCCOc1c(OCCCN2CCOCC2)ccc2c1N=C(NC(=O)c1cccnc1)N1CCN=C21 [Example 15, N-[7-{3-[(dimethylamino)sulfonyl]propoxy}-8-(3-morpholin-4-ylpropoxy)-2,3-dihydroimidazo[1,2-c]quinazolin-5-yl]nicotinamide]",> 7.00
16,"COc1c(OCc2ccc(S(C)(=O)=O)cc2)ccc2c1N=C(NC(=O)c1cnc(N)nc1)N1CCN=C21 [Example 16, 2-amino-N-(7-methoxy-8-{[4-(methylsulfonyl)benzyl]oxy}-2,3-dihydroimidazo[1,2-c]quinazolin-5-yl)pyrimidine-5-carboxamide]",> 7.00
17,"COc1c(OCCCS(=O)(=O)N(C)C)ccc2c1N=C(NC(=O)c1cnc(N)nc1)N1CCN=C21 [Example 17, 2-amino-N-(8-{3-[(dimethylamino)sulfonyl]propoxy}-7-methoxy-2,3-dihydroimidazo[1,2-c]quinazolin-5-yl)pyrimidine-5-carboxamide]",> 7.00
18,"COc1c(OCCCS(=O)(=O)N(C)C)ccc2c1N=C(NC(=O)c1ccc(N)nc1)N1CCN=C21 [Example 18, 6-amino-N-(8-{3-[(dimethylamino)sulfonyl]propoxy}-7-methoxy-2,3-dihydroimidazo[1,2-c]quinazolin-5-yl)nicotinamide]",> 7.00
19,"COc1c(OCCCN2CCS(=O)(=O)CC2)ccc2c1N=C(NC(=O)c1ccc(N)nc1)N1CCN=C21 [Example 19, 6-amino-N-{8-[3-(1,1-dioxidothiomorpholin-4-yl)propoxy]-7-methoxy-2,3-dihydroimidazo[1,2-c]quinazolin-5-yl}nicotinamide]",> 7.00
20,"COc1c(OCc2ccc(S(C)(=O)=O)cc2)ccc2c1N=C(NC(=O)c1ccc(N)nc1)N1CCN=C21 [Example 20, 6-amino-N-(7-methoxy-8-{[4-(methylsulfonyl)benzyl]oxy}-2,3-dihydroimidazo[1,2-c]quinazolin-5-yl)nicotinamide]",> 7.00
21,"COc1c(OCCCN2CCS(=O)(=O)CC2)ccc2c1N=C(NC(=O)c1cnc(N)nc1)N1CCN=C21 [Example 21, 2-amino-N-{8-[3-(1,1-dioxidothiomorpholin-4-yl)propoxy]-7-methoxy-2,3-dihydroimidazo[1,2-c]quinazolin-5-yl}pyrimidine-5-carboxamide]",> 7.00
22,"COc1c(OCCCS(=O)(=O)N2CCOCC2)ccc2c1N=C(NC(=O)c1ccc(N)nc1)N1CCN=C21 [Example 22, 6-amino-N-{7-methoxy-8-[3-(morpholin-4-ylsulfonyl)propoxy]-2,3-dihydroimidazo[1,2-c]quinazolin-5-yl}nicotinamide]",> 7.00
23,"COc1c(OCCCS(=O)(=O)N2CCOCC2)ccc2c1N=C(NC(=O)c1cnc(N)nc1)N1CCN=C21 [Example 23, 2-amino-N-{7-methoxy-8-[3-(morpholin-4-ylsulfonyl)propoxy]-2,3-dihydroimidazo[1,2-c]quinazolin-5-yl}pyrimidine-5-carboxamide]",> 7.00
24,"O=C(NC1=Nc2cc(OCCCS(=O)(=O)N3CCOCC3)ccc2C2=NCCN12)c1cccnc1 [Example 24, N-{8-[3-(morpholin-4-ylsulfonyl)propoxy]-2,3-dihydroimidazo[1,2-c]quinazolin-5-yl}nicotinamide]",5.52 to 7.00
25,"CN1CCN(S(=O)(=O)CCCOc2ccc3c(c2)N=C(NC(=O)c2cccnc2)N2CCN=C32)CC1 [Example 25, N-(8-{3-[(4-methylpiperazin-1-yl)sulfonyl]propoxy}-2,3-dihydroimidazo[1,2-c]quinazolin-5-yl)nicotinamide]",5.52 to 7.00
26,"CS(=O)(=O)c1ccc(COc2ccc3c(c2)N=C(NC(=O)c2cccnc2)N2CCN=C32)cc1 [Example 26, N-(8-{[4-(methylsulfonyl)benzyl]oxy}-2,3-dihydroimidazo[1,2-c]quinazolin-5-yl)nicotinamide]",5.52 to 7.00
27,"Cc1nc(C)c(C(=O)NC2=Nc3cc(OCc4ccc(S(C)(=O)=O)cc4)ccc3C3=NCCN23)s1 [Example 27, 2,4-dimethyl-N-(8-{[4-(methylsulfonyl)benzyl]oxy}-2,3-dihydroimidazo[1,2-c]quinazolin-5-yl)-1,3-thiazole-5-carboxamide]",5.52 to 7.00
28,"O=C(NC1=Nc2cc(OCCCS(=O)(=O)N3CCOCC3)ccc2C2=NCCN12)c1cncnc1 [Example 28, N-{8-[3-(morpholin-4-ylsulfonyl)propoxy]-2,3-dihydroimidazo[1,2-c]quinazolin-5-yl}pyrimidine-5-carboxamide]",5.52 to 7.00
29,"Nc1ncc(C(=O)NC2=Nc3cc(OCCCS(=O)(=O)N4CCOCC4)ccc3C3=NCCN23)cn1 [Example 29, 2-amino-N-{8-[3-(morpholin-4-ylsulfonyl)propoxy]-2,3-dihydroimidazo[1,2-c]quinazolin-5-yl}pyrimidine-5-carboxamide]",> 7.00
